Laboratory results reported in ChEMBL document CHEMBL1201861, “Genomics of Drug Sensitity in Cancer screening data, Wellcome Trust Sanger Institute”.

Legend:
Test in all cases: cells
[1] = test system: RVH-421; assay type: functional, cell-based; conditions: Homo sapiens
Description: SANGER: Inhibition of human RVH-421 cell growth in a cell viability assay.

[2] = test system: SK-OV-3; assay type: functional, cell-based; conditions: Homo sapiens;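 note: growth inhibition of SK-OV-3 human cells, read out with a cell viability assay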
Description: SANGER: Inhibition of human SK-OV-3 cell growth in a cell viability assay.

[3] = test system: C-33-A; assay type: functional, cell-based; conditions: Homo sapiens;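 note: cell viability assay measuring growth inhibition of C-33-A cells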
Description: SANGER: Inhibition of human C-33-A cell growth in a cell viability assay.

[4] = test system: HCC1954; assay type: functional, cell-based; conditions: Homo sapiens;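 note: growth inhibition of human HCC1954 cells, read out with a cell viability assay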
Description: SANGER: Inhibition of human HCC1954 cell growth in a cell viability assay.

[5] = test system: KYSE-140; assay type: functional, cell-based; conditions: Homo sapiens;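 note: cell viability assay measuring growth inhibition in human KYSE-140 cells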
Description: SANGER: Inhibition of human KYSE-140 cell growth in a cell viability assay.

[6] = test system: A204; assay type: functional, cell-based; conditions: Homo sapiens;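 note: growth inhibition of human A204 cells, read out with a cell viability assay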
Description: SANGER: Inhibition of human A204 cell growth in a cell viability assay.

[7] = test system: A-431; assay type: functional, cell-based; conditions: Homo sapiens;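 note: growth inhibition of A-431 cells, determined with a cell viability read-out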
Description: SANGER: Inhibition of human A431 cell growth in a cell viability assay.

[8] = test system: VM-CUB-1; assay type: functional, cell-based; conditions: Homo sapiens;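 note: cell viability assay measuring growth inhibition of the human VM-CUB-1 cell line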
Description: SANGER: Inhibition of human VM-CUB-1 cell growth in a cell viability assay.

[9] = test system: SK-MEL-30; assay type: functional, cell-based; conditions: Homo sapiens;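 note: growth inhibition of SK-MEL-30 cells, determined with a cell viability assay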
Description: SANGER: Inhibition of human SK-MEL-30 cell growth in a cell viability assay.

[10] = test system: 647-V; assay type: functional, cell-based; conditions: Homo sapiens;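 note: growth inhibition of 647-V cells, read out with a cell viability assay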
Description: SANGER: Inhibition of human 647-V cell growth in a cell viability assay.

[11] = test system: SBC-5; assay type: functional, cell-based; conditions: Homo sapiens;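 note: cell viability assay read-out, IC50 is the concentration that inhibits growth of the cells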
Description: SANGER: Inhibition of human SBC-5 cell growth in a cell viability assay.

[12] = test system: NCI-H2170; assay type: functional, cell-based; conditions: Homo sapiens;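 note: cell viability assay measuring growth inhibition of human NCI-H2170 cancer cells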
Description: SANGER: Inhibition of human NCI-H2170 cell growth in a cell viability assay.

[13] = test system: SW1783; assay type: functional, cell-based; conditions: Homo sapiens;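 note: cell growth inhibition measured with a viability assay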
Description: SANGER: Inhibition of human SW1783 cell growth in a cell viability assay.

[14] = test system: A-375; assay type: functional, cell-based; conditions: Homo sapiens;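 note: growth inhibition of A375 cells, read out with a cell viability assay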
Description: SANGER: Inhibition of human A375 cell growth in a cell viability assay.

[15] = test system: 769-P; assay type: functional, cell-based; conditions: Homo sapiens
Description: SANGER: Inhibition of human 769-P cell growth in a cell viability assay.

[16] = test system: CaR-1; assay type: functional, cell-based; conditions: Homo sapiens;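 note: growth inhibition of human CaR-1 cancer cells, read out with a cell viability assay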
Description: SANGER: Inhibition of human CaR-1 cell growth in a cell viability assay.

[17] = test system: SK-MEL3; assay type: functional, cell-based, SK-MEL-3; conditions: Homo sapiens;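 note: growth inhibition of human SK-MEL-3 cells, read out with a cell viability assay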
Description: SANGER: Inhibition of human SK-MEL-3 cell growth in a cell viability assay.

[18] = test system: SW780; assay type: functional, cell-based; conditions: Homo sapiens;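 note: growth inhibition of the cells, read out with a cell viability assay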
Description: SANGER: Inhibition of human SW780 cell growth in a cell viability assay.

[19] = test system: IGROV-1; assay type: functional, cell-based; conditions: Homo sapiens;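 note: reduction of IGROV-1 cell growth, read out with a viability assay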
Description: SANGER: Inhibition of human IGROV-1 cell growth in a cell viability assay.

[20] = test system: CAL-33; assay type: functional, cell-based; conditions: Homo sapiens;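 note: growth inhibition of CAL-33 cells, read out with a cell viability assay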
Description: SANGER: Inhibition of human CAL-33 cell growth in a cell viability assay.

[21] = test system: 8505C; assay type: functional, cell-based; conditions: Homo sapiens
Description: SANGER: Inhibition of human 8505C cell growth in a cell viability assay.

[22] = test system: SW48; assay type: functional, cell-based; conditions: Homo sapiens;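 note: growth inhibition of SW48 cells, read out with a cell viability assay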
Description: SANGER: Inhibition of human SW48 cell growth in a cell viability assay.

[23] = test system: SAOS-2; assay type: functional, cell-based; conditions: Homo sapiens;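 note: growth inhibition of human Saos-2 cells determined by a cell viability assay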
Description: SANGER: Inhibition of human Saos-2 cell growth in a cell viability assay.

[24] = test system: NB7; assay type: functional, cell-based, Homo sapiens; conditions: Homo sapiens, NB7;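 note: growth inhibition of NB7 cells, read out with a cell viability assay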
Description: SANGER: Inhibition of human NB7 cell growth in a cell viability assay.

[25] = test system: AN3-CA; assay type: functional, cell-based; conditions: Homo sapiens;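 note: growth inhibition of human AN3-CA cells measured by a cell viability assay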
Description: SANGER: Inhibition of human AN3-CA cell growth in a cell viability assay.

[26] = test system: SW756; assay type: functional, cell-based; conditions: Homo sapiens;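 note: growth inhibition of human SW756 cells, read out with a cell viability assay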
Description: SANGER: Inhibition of human SW756 cell growth in a cell viability assay.

[27] = test system: MOLT-13; assay type: functional, cell-based; conditions: Homo sapiens;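 note: IC50 for suppression of MOLT-13 cell growth, read out with a cell viability assay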
Description: SANGER: Inhibition of human MOLT-13 cell growth in a cell viability assay.

[28] = test system: Ca-Ski; assay type: functional, cell-based; conditions: Homo sapiens;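 note: cell viability assay measuring inhibition of Ca-Ski cell growth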
Description: SANGER: Inhibition of human Ca-Ski cell growth in a cell viability assay.

[29] = test system: A 172; assay type: functional, cell-based; conditions: Homo sapiens;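 note: growth inhibition of A172 cells, measured with a cell viability readout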
Description: SANGER: Inhibition of human A172 cell growth in a cell viability assay.

[30] = test system: SK-HEP1; assay type: functional, cell-based, SK-HEP-1; conditions: Homo sapiens;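 note: cell viability readout used to quantify reduction in proliferation of human SK-HEP-1 cells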
Description: SANGER: Inhibition of human SK-HEP-1 cell growth in a cell viability assay.

[31] = test system: PC-3; assay type: functional, cell-based; conditions: Homo sapiens;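 note: cell viability assay measuring growth inhibition of PC-3 cells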
Description: SANGER: Inhibition of human PC-3 cell growth in a cell viability assay.

[32] = test system: 639-V; assay type: functional, cell-based; conditions: Homo sapiens;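 note: growth inhibition of 639-V cells, read out with a cell viability assay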
Description: SANGER: Inhibition of human 639-V cell growth in a cell viability assay.

[33] = test system: CAL-120; assay type: functional, cell-based; conditions: Homo sapiens;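 note: cell growth inhibition, read out as cell viability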
Description: SANGER: Inhibition of human CAL-120 cell growth in a cell viability assay.

[34] = test system: NCI-H596; assay type: functional, cell-based; conditions: Homo sapiens;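 note: growth inhibition of NCI-H596 cells, read out with a cell viability assay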
Description: SANGER: Inhibition of human NCI-H596 cell growth in a cell viability assay.

[35] = test system: HT-1376; assay type: functional, cell-based; conditions: Homo sapiens
Description: SANGER: Inhibition of human HT-1376 cell growth in a cell viability assay.

[36] = test system: HCC1395; assay type: functional, cell-based; conditions: Homo sapiens;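 note: growth inhibition of HCC1395 cells, read out by a cell viability assay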
Description: SANGER: Inhibition of human HCC1395 cell growth in a cell viability assay.

[37] = test system: NCI-H661; assay type: functional, cell-based; conditions: Homo sapiens;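 note: cell viability assay read-out, IC50 being the concentration that inhibits growth of the cells by half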
Description: SANGER: Inhibition of human NCI-H661 cell growth in a cell viability assay.

[38] = test system: DK-MG; assay type: functional, cell-based; conditions: Homo sapiens;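 note: growth inhibition of DK-MG cells, read out with a cell viability assay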
Description: SANGER: Inhibition of human DK-MG cell growth in a cell viability assay.

[39] = test system: DMS-273; assay type: functional, cell-based; conditions: Homo sapiens
Description: SANGER: Inhibition of human DMS-273 cell growth in a cell viability assay.

[40] = test system: HT1197; assay type: functional, cell-based, HT-1197; conditions: Homo sapiens
Description: SANGER: Inhibition of human HT-1197 cell growth in a cell viability assay.

[41] = test system: LB373-MEL-D; assay type: functional, cell-based, Homo sapiens; conditions: Homo sapiens, LB373-MEL-D;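 note: growth inhibition of the cell line, read out in a cell viability assay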
Description: SANGER: Inhibition of human LB373-MEL-D cell growth in a cell viability assay.

[42] = test system: NCI-H1703; assay type: functional, cell-based; conditions: Homo sapiens;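 note: growth inhibition of NCI-H1703 cells, read out via a cell viability assay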
Description: SANGER: Inhibition of human NCI-H1703 cell growth in a cell viability assay.

[43] = test system: NCI-H2052; assay type: functional, cell-based; conditions: Homo sapiens;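 note: growth inhibition of NCI-H2052 cells, read out with a cell viability assay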
Description: SANGER: Inhibition of human NCI-H2052 cell growth in a cell viability assay.

[44] = test system: HGC-27; assay type: functional, cell-based; conditions: Homo sapiens;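 note: growth inhibition of human HGC-27 cells, read out in a cell viability assay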
Description: SANGER: Inhibition of human HGC-27 cell growth in a cell viability assay.

Measured: IC50

Cc1ccc(-n2nc(C(C)(C)C)cc2NC(=O)Nc2ccc(OCCN3CCOCC3)c3ccccc23)cc1 [DORAMAPIMOD]
> 10 µM: all assays above
